ChEMBL document CHEMBL5614391, “GPX4 allosteric activators inhibit ferroptosis and exert myocardial protection in doxorubicin-induced myocardial injury mouse model” (Eur J Med Chem, 2024)

Assays:
HT-1080 = assay: Reversal of erastin induced cell death in human HT-1080 cells assessed as cell viability preincubated for 1 hr followed by erastin addition and measured after 24 hrs by CCK8 method
[1] = target: T1, Phospholipid hydroperoxide glutathione peroxidase GPX4 (Homo sapiens, UniProt P36969); assay: Binding affinity to GPX4 (unknown origin) assessed as dissociation constant by surface plasmon resonance
T1 sequence (P36969 whole entry): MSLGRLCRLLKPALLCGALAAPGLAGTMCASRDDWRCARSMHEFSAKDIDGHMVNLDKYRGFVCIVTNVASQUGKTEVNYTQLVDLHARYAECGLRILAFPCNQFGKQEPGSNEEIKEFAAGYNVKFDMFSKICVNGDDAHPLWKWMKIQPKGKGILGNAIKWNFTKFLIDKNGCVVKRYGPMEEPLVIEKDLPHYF

## COc1ccc(NCc2cccn2-c2nnc(N3CCN(C)CC3)s2)cc1OC
HT-1080
  EC50: 19.2 µM
[1]
  Kd: 5.86 µM

## COc1ccc(NCc2cccn2-c2nnc(N3CCCCC3)s2)cc1OC
[1]
  Kd: 5.69 µM

## COc1ccc(NCc2cc3ccccc3n2-c2nnc(N3CCN(C)CC3)s2)cc1OC
[1]
  Kd: 4.06 µM

## CN1CCN(c2nnc(-n3cccc3CNc3ccc4c(c3)OCCO4)s2)CC1
[1]
  Kd: 0.835 µM

## CCCN1CCN(c2nnc(-n3cccc3CNc3ccc(OC)c(OC)c3)s2)CC1
[1]
  Kd: 0.036 µM

## COc1ccc(NCc2cccn2-c2nnc(NC(=O)c3ccccc3F)s2)cc1OC
[1]
  Kd: 10.5 µM

## COc1ccc(NCc2cccn2-c2cnc(C)s2)cc1OC
[1]
  Kd: 8.24 µM

## COc1ccc(NCc2cccn2-c2nnc(N3CCN(C)CC3)s2)cc1
[1]
  Kd: 7.87 µM

## COc1ccc(NCc2cccn2-c2ccc(Cl)cc2)cc1OC
[1]
  Kd: 1.14 µM

## COc1ccc(NCc2cccn2-c2nnc(N)s2)cc1OC
[1]
  Kd: 0.17 µM

## COc1ccc(NCc2cccn2-c2nnc(NC(=O)c3ccccc3)s2)cc1OC
[1]
  Kd: 1.27 µM

## COc1ccc(NCc2cccn2-c2nc3ccccc3s2)cc1OC
[1]
  Kd: 4.99 µM

## CCN(CC)c1nnc(-n2cccc2CNc2ccc(OC)c(OC)c2)s1
[1]
  Kd: 9.8 µM

## COc1ccc(NCc2ccnn2-c2nnc(N3CCN(C)CC3)s2)cc1OC
[1]
  Kd: 4.64 µM

## COc1ccc(NCc2cccn2-c2nnc(N3CCOCC3)s2)c(OC)c1
[1]
  Kd: 10.5 µM

## COc1ccc(NCc2cccn2-c2nnc(NC(=O)c3cccc(F)c3)s2)cc1OC
[1]
  Kd: 0.931 µM

## COc1ccc(NCc2cccn2-c2nnc(NC(=O)c3ccc(F)cc3)s2)cc1OC
[1]
  Kd: 4.69 µM

## COc1ccc(NCc2cccn2-c2nnc(N3CCN(C)CC3)s2)c(OC)c1
HT-1080
  EC50: 7.8 µM
[1]
  Kd: 0.426 µM

## CCOc1cc(NCc2cccn2-c2nnc(N3CCN(C)CC3)s2)ccc1OC
[1]
  Kd: 10.7 µM

## COc1ccc(NCc2cccn2-c2nn3ccnc3s2)c(OC)c1
[1]
  Kd: 0.717 µM

## COc1ccc(NCc2cccn2-c2nn3ccnc3s2)cc1OC
[1]
  Kd: 4.23 µM

## COc1ccc(NCc2cncn2-c2nnc(N3CCN(C)CC3)s2)cc1OC
[1]
  Kd: 3.43 µM

## COc1ccc(NCc2cccn2-c2nnc(C)s2)cc1OC
[1]
  Kd: 4.48 µM

## COc1ccc(NCc2cccn2-c2nnc(N(C)C)s2)cc1OC
[1]
  Kd: 5.22 µM

## COc1ccc(NCc2cccn2-c2ccc(N3CCN(C)CC3)s2)cc1OC
[1]
  Kd: 6.9 µM

## COc1ccc(NCc2cccn2-c2nncs2)cc1OC
[1]
  Kd: 7.91 µM

## COc1ccc(NCc2cccn2-c2cccc(Cl)n2)cc1OC
[1]
  Kd: 1.05 µM

## COc1ccc(NCc2cccn2-c2cccc(N3CCN(C)CC3)n2)cc1OC
[1]
  Kd: 2.1 µM

## COc1ccc(NCc2cccn2-c2nnc(N3CCOCC3)s2)cc1OC
[1]
  Kd: 27.1 µM
